# Experimental data from PubChem BioAssay AID602463 (NMMLSC, 2012).
# System: DS-PAMPA, 20% ACN buffer, UV absorbance, 30 min
# Assay: passive membrane permeability of hits, cosolvent PAMPA, late-stage follow-up, ADME assay for GPR30 and estrogen receptor ligands, biophysical, double-sink PAMPA, 20% ACN buffer, pH 5.0/6.2/7.4 (AID 602463)
# Details: stronger effect = higher value
compound,measurement,setting,value
CC(=O)c1ccc2c(c1)[C@@H]1C=CC[C@@H]1[C@H](c1cc3c(cc1Br)OCO3)N2,permeability pH 7.4,,316 10^-6 cm/s
same,permeability pH 5.0,measured here: PAMPA permeability at pH 5.0,349 10^-6 cm/s
same,permeability pH 6.2,measured here: PAMPA permeability at pH 6.2,565 10^-6 cm/s
